From patent US9371336B2, “Compounds for treating spinal muscular atrophy” (PTC Therapeutics Inc., priority 2012, dated 2016)

Tests used:
[1] = tested on: SMN2 minigene mRNA (SMN2-A minigene construct); assay: SMN2 minigene mRNA splicing RT-qPCR assay in cultured cells; format: cell-based, human; settings: Homo sapiens, HEK293-H; HEK293H cells stably transfected with SMN2-A minigene, 24 hours, 7-point concentration data; concentration giving 1.5-fold SMN2 full length mRNA relative to vehicle-treated cells; read-out: EC1.5x for production of full length SMN2 mRNA
Procedure, shortened: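 Full-length SMN2 minigene mRNA, measured by exon 7/luciferase-specific RT-qPCR that excludes endogenous SMN1/SMN2, was normalized to GAPDH and expressed relative to vehicle-treated cells via modified ΔΔCt. Stably transfected HEK293H cells received compound (7-point, 3.16-fold series, duplicates) for 24 h at 37 °C.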

Smn protein = Smn protein assay (HTRF) in cultured cells (SMA patient fibroblasts GM03813); format: cell-based, human; settings: 48 hours; for EC1.5x for Smn protein expression: SMA patient fibroblast cells (GM03813), HTRF, 7-point concentration data, concentration producing 1.5 times Smn protein vs DMSO vehicle control; for maximum fold (Fold) increase of Smn protein: SMA patient fibroblast cells, 7-point concentration curve, relative to vehicle control
Procedure, shortened: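 SMA patient fibroblasts (GM03813) were treated 48 h at 37° C with a 7-point, 3.16-fold compound series in triplicate, then lysed in RIPA. Smn was read by HTRF (anti-SMN d2/kryptate, 665/620 nm ratio). ΔF versus blank was divided by vehicle ΔF to give fold Smn increase.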

SMILES | melting point [°C] | EC (1.5-fold) [1] [µM] | EC1.5x for Smn protein expression (Smn protein) | maximum fold (Fold) increase of Smn protein (Smn protein)
Cc1ccn2cc(-c3cc4ccc(N5CCN(C)C[C@@H]5C)nc4oc3=O)nc2c1 [Cpd 62, 7-[(2S)-2,4-dimethylpiperazin-1-yl]-3-(7-methylimidazo[1,2-a]pyridin-2-yl)-2H-pyrano[2,3-b]pyridin-2-one] | 242 to 246 | ≤ 0.1 | **** (an EC1.5×≦0.3 μM is indicated by four stars (****)) | **** (a fold increase between >1.5 and ≦1.65 is indicated by four stars (****))
Cc1ccn2cc(-c3cc4ccc(N5CCCNCC5)nc4oc3=O)nc2c1 [Cpd 65, 7-(1,4-diazepan-1-yl)-3-(7-methylimidazo[1,2-a]pyridin-2-yl)-2H-pyrano[2,3-b]pyridin-2-one] | 239 to 241 | 0.3 to 1 | **** (an EC1.5×≦0.3 μM is indicated by four stars (****)) | **** (a fold increase between >1.5 and ≦1.65 is indicated by four stars (****))
Cc1ccc2nc(-c3cc4ccc(N5CCCNCC5)nc4oc3=O)cn2c1 [Cpd 66, 7-(1,4-diazepan-1-yl)-3-(6-methylimidazo[1,2-a]pyridin-2-yl)-2H-pyrano[2,3-b]pyridin-2-one] | 240 to 243 | 0.1 to 0.3 | ** (an EC1.5× between >1 and ≦3 μM is indicated by two stars (**)) | *** (a fold increase between >1.35 and ≦1.5 is indicated by three stars (***))
Cc1ccc2nc(-c3cc4ccc(N5C[C@@H](C)N[C@@H](C)C5)nc4oc3=O)cn2c1 [Cpd 67, 7-[(3R,5S)-3,5-dimethylpiperazin-1-yl]-3-(6-methylimidazo[1,2-a]pyridin-2-yl)-2H-pyrano[2,3-b]pyridin-2-one] | 248 to 251 | ≤ 0.1 | *** (an EC1.5× between >0.3 μM and ≦1 μM is indicated by three stars (***)) | **** (a fold increase between >1.5 and ≦1.65 is indicated by four stars (****))
C[C@H]1CN(C)CCN1c1ccc2cc(-c3cn4cccc(F)c4n3)c(=O)oc2n1 [Cpd 68, 7-[(2S)-2,4-dimethylpiperazin-1-yl]-3-(8-fluoroimidazo[1,2-a]pyridin-2-yl)-2H-pyrano[2,3-b]pyridin-2-one] | 210 to 213 | ≤ 0.1 | *** (an EC1.5× between >0.3 μM and ≦1 μM is indicated by three stars (***)) | **** (a fold increase between >1.5 and ≦1.65 is indicated by four stars (****))
C[C@H]1CN(c2ccc3cc(-c4cn5cccc(F)c5n4)c(=O)oc3n2)CCN1C [Cpd 69, 7-[(3S)-3,4-dimethylpiperazin-1-yl]-3-(8-fluoroimidazo[1,2-a]pyridin-2-yl)-2H-pyrano[2,3-b]pyridin-2-one] | 222 to 225 | ≤ 0.1 | **** (an EC1.5×≦0.3 μM is indicated by four stars (****)) | ***** (a fold increase >1.65 is indicated by five stars (*****))
Cc1ccc2nc(-c3cc4ccc(N5CCN(C)[C@@H](C)C5)nc4oc3=O)cn2c1 [Cpd 74, 7-[(3S)-3,4-dimethylpiperazin-1-yl]-3-(6-methylimidazo[1,2-a]pyridin-2-yl)-2H-pyrano[2,3-b]pyridin-2-one] | 248 to 252 | ≤ 0.1 | *** (an EC1.5× between >0.3 μM and ≦1 μM is indicated by three stars (***)) | **** (a fold increase between >1.5 and ≦1.65 is indicated by four stars (****))
Cc1ccc2nc(-c3cc4ccc(N5CCN(C)[C@H](C)C5)nc4oc3=O)cn2c1 [Cpd 75, 7-[(3R)-3,4-dimethylpiperazin-1-yl]-3-(6-methylimidazo[1,2-a]pyridin-2-yl)-2H-pyrano[2,3-b]pyridin-2-one] | 247 to 251 | 0.1 to 0.3 | *** (an EC1.5× between >0.3 μM and ≦1 μM is indicated by three stars (***)) | **** (a fold increase between >1.5 and ≦1.65 is indicated by four stars (****))
C[C@@H]1CN(c2ccc3cc(-c4cn5cccc(F)c5n4)c(=O)oc3n2)C[C@H](C)N1 [Cpd 76, 7-[(3R,5S)-3,5-dimethylpiperazin-1-yl]-3-(8-fluoroimidazo[1,2-a]pyridin-2-yl)-2H-pyrano[2,3-b]pyridin-2-one] | 247 to 249 | ≤ 0.1 | **** (an EC1.5×≦0.3 μM is indicated by four stars (****)) | ***** (a fold increase >1.65 is indicated by five stars (*****))
C[C@@H]1CN(c2ccc3cc(-c4cn5cccnc5n4)c(=O)oc3n2)C[C@H](C)N1 [Cpd 78, 7-[(3R,5S)-3,5-dimethylpiperazin-1-yl]-3-(imidazo[1,2-a]pyrimidin-2-yl)-2H-pyrano[2,3-b]pyridin-2-one] | 255 to 258 | 0.1 to 0.3 | **** (an EC1.5×≦0.3 μM is indicated by four stars (****)) | ***** (a fold increase >1.65 is indicated by five stars (*****))
C[C@H]1CN(c2ccc3cc(-c4cn5ccccc5n4)c(=O)oc3n2)CCN1C [Cpd 81, 7-[(3S)-3,4-dimethylpiperazin-1-yl]-3-(imidazo[1,2-a]pyridin-2-yl)-2H-pyrano[2,3-b]pyridin-2-one] | 213 to 216 | 0.1 to 0.3 | **** (an EC1.5×≦0.3 μM is indicated by four stars (****)) | ***** (a fold increase >1.65 is indicated by five stars (*****))
C[C@@H]1CN(c2ccc3cc(-c4cn5ccccc5n4)c(=O)oc3n2)CCN1C [Cpd 82, 7-[(3R)-3,4-dimethylpiperazin-1-yl]-3-(imidazo[1,2-a]pyridin-2-yl)-2H-pyrano[2,3-b]pyridin-2-one] | 216 to 219 | 0.1 to 0.3 | *** (an EC1.5× between >0.3 μM and ≦1 μM is indicated by three stars (***)) | **** (a fold increase between >1.5 and ≦1.65 is indicated by four stars (****))
Cc1cn2cc(-c3cc4ccc(N5CCCNCC5)nc4oc3=O)nc2c(C)n1.Cl [Cpd 89, 7-(1,4-diazepan-1-yl)-3-(6,8-dimethylimidazo[1,2-a]pyrazin-2-yl)-2H-pyrano[2,3-b]pyridin-2-one hydrochloride] | 273 to 276 | ≤ 0.1 | **** (an EC1.5×≦0.3 μM is indicated by four stars (****)) | **** (a fold increase between >1.5 and ≦1.65 is indicated by four stars (****))

Further lines, with some results ahead:

melting point [°C] | SMILES | EC (1.5-fold) [1] [µM] | EC1.5x for Smn protein expression (Smn protein) | maximum fold (Fold) increase of Smn protein (Smn protein)
295 to 297 | C[C@@H]1CN(c2ccc3cc(-c4nc5c(Cl)cccc5s4)c(=O)oc3n2)C[C@H](C)N1 [Cpd 70, 3-(4-chloro-1,3-benzothiazol-2-yl)-7-[(3R,5S)-3,5-dimethylpiperazin-1-yl]-2H-pyrano[2,3-b]pyridin-2-one] | 0.1 to 0.3 | – | *** (a fold increase between >1.35 and ≦1.5 is indicated by three stars (***))
286 to 288 | C[C@@H]1CN(c2ccc3cc(-c4nc5c(Cl)cccc5s4)c(=O)oc3n2)C[C@H](C)N1C [Cpd 71, 3-(4-chloro-1,3-benzothiazol-2-yl)-7-[(3R,5S)-3,4,5-trimethylpiperazin-1-yl]-2H-pyrano[2,3-b]pyridin-2-one] | 0.1 to 0.3 | – | ** (a fold increase between >1.2 and ≦1.35 is indicated by two stars (**))
240 to 242 | C[C@@H]1CN(c2ccc3cc(-c4cn5cccc(Cl)c5n4)c(=O)oc3n2)C[C@H](C)N1 [Cpd 77, 3-(8-chloroimidazo[1,2-a]pyridin-2-yl)-7-[(3R,5S)-3,5-dimethylpiperazin-1-yl]-2H-pyrano[2,3-b]pyridin-2-one] | ≤ 0.1 | **** (an EC1.5×≦0.3 μM is indicated by four stars (****)) | ***** (a fold increase >1.65 is indicated by five stars (*****))
223 to 227 | C[C@@H]1CN[C@@H](C)CN1c1ccc2cc(-c3nc4c(Cl)cccc4s3)c(=O)oc2n1 [Cpd 85, 3-(4-chloro-1,3-benzothiazol-2-yl)-7-[(2R,5S)-2,5-dimethylpiperazin-1-yl]-2H-pyrano[2,3-b]pyridin-2-one] | 0.1 to 0.3 | – | ** (a fold increase between >1.2 and ≦1.35 is indicated by two stars (**))
233 to 234 | C[C@@H]1CN(C)[C@@H](C)CN1c1ccc2cc(-c3nc4c(Cl)cccc4s3)c(=O)oc2n1 [Cpd 86, 3-(4-chloro-1,3-benzothiazol-2-yl)-7-[(2R,5S)-2,4,5-trimethylpiperazin-1-yl]-2H-pyrano[2,3-b]pyridin-2-one] | 0.3 to 1 | – | ** (a fold increase between >1.2 and ≦1.35 is indicated by two stars (**))
225 to 229 | Cc1ccc2nc(-c3cc4ccc(N5C[C@H](C)NC[C@H]5C)nc4oc3=O)cn2c1 [Cpd 87, 7-[(2R,5S)-2,5-dimethylpiperazin-1-yl]-3-(6-methylimidazo[1,2-a]pyridin-2-yl)-2H-pyrano[2,3-b]pyridin-2-one] | 0.1 to 0.3 | **** (an EC1.5×≦0.3 μM is indicated by four stars (****)) | ***** (a fold increase >1.65 is indicated by five stars (*****))
